# From patent US20190046490A1, “METHODS OF TREATING LACTOSE INTOLERANCE” (Nogra Pharma Limited, priority 2016, published 2019)
# Entries after “also recorded” stand apart in the source; their conditions may differ.
# Legend:
# [1] = tested on: LCT gene; experiment: Transcriptome microarray analysis of LCT mRNA expression in Caco-2 cells treated with PPARγ modulators; type: cell-based, human; settings: vs unstimulated cells
# Protocol: (§1) Caco-2 (colonic adenocarcinoma) cells were grown in Dulbecco's Modified Eagle's Medium (DMEM, Invitrogen, Life Technologies, Cergy-Pontoise, France) supplemented with 20% foetal calf serum (FCS, Dutscher, Brumath, France), 1% penicillin-streptomycin (5 ml/l) (Invitrogen, Life technologies) and 1% non-essential amino acids (5 ml/l) (Invitrogen, Life technologies). All cell lines were cultured as confluent monolayers at 37° C. in a controlled, 5% CO2 atmosphere.
# (§2) For cell stimulations, 1×10^6 cells per well were seeded in 6-well plates. Cells were serum deprived for 16 hours prior to stimulation in order to synchronize the cells. Cells were treated with GED (Nogra Pharma Ltd, Ireland), pioglitazone (1 μM, Sigma-Aldrich) or CLA (various concentrations, Sigma-Aldrich). When necessary, the DMSO vehicle (Sigma-Aldrich) was used as control. After 24 hours of stimulation, cells were washed three times with sterile PBS before RNA extraction. Cell stimulations were performed in 4 replicates for microarray analysis and in 3, 4 or 6 replicates for other stimulations.
# (§3) Cells were lysed with lysis buffer (RA1, Macherey-Nagel) containing 1% β-mercaptoethanol. Total RNA was extracted with a Nucleospin RNA kit (Macherey-Nagel, Hoerdt, France). After RNAse inactivation, total RNA was cleaned of genomic DNA traces by DNAse treatment and eluted in RNAse-free, DEPC-water. The purity of the RNA was evaluated by UV spectroscopy on a Nanodrop system (Nyxor Biotech, Paris, France) from 220 to 350 nm. Before microarray experiments, RNAs were also profiled on an Agilent 2100 bioanalyzer. One μg of total RNA with a minimum concentration of 50 ng/μl was used in the microarray and qRT-PCR analysis.
# Dual-colour gene expression microarrays were used to compare the cRNA from the samples. 44,000 genes were screened. The RNAs from the samples were first reverse-transcribed into cDNA (Affinity-Script RT, Agilent), which were then used as the substrate for the synthesis and amplification of cRNA by T7 RNA polymerase in the presence of cyanine 3-CTP for the CTL sample (green fluorescence) and cyanine 5-CTP for the PPAR-γ y modulator sample (red fluorescence). The two-labelled cRNAs were mixed, hybridized on the same array (G4851A Agilent 8×44K) and then scanned (with an Agilent G2505B scanner). Fluorescence was visualized after laser excitation and the relative intensities of the two fluorophores were expressed as a ratio, in order to yield the over- or under-expression status of each gene (using GeneSpring software (Agilent)). This analysis was performed for each PPAR-γ modulator.
# [2] = tested on: LCT mRNA; experiment: Quantitative PCR of LCT mRNA expression in Caco-2 cells; type: cell-based, human; settings: for LCT mRNA expression relative to control (qPCR): 24 hours, normalized to GAPDH
# Protocol: as §1, §2, §3
# (§4) Expression of genes of interest was quantified by quantitative PCR (qPCR) of corresponding reverse transcribed mRNA. One μg of total RNA was reverse-transcribed into cDNA using the High Capacity cDNA Archive kit (Applied Biosystems). Amplification was performed using an ABI PRISM 7000 sequence detection system (Applied Biosystem) using Power SYBR® Green PCR master Mix (Applied Biosystem). Primer pairs for each human transcript were chosen with qPrimer depot software (at primerdepot.nci.nih.gov.). Quantification of qPCR signals was performed using ΔCt relative quantification method using GAPDH as a reference gene for human and rat samples and β-Actin for mouse samples. Values were represented in terms of relative quantity of mRNA level variation or fold increase compared to control conditions.
# [3] = tested on: LCT activity; experiment: Lactase activity in Caco-2 cells (glucose oxidase method); type: cell-based, human
# Protocol: (§5) Lactase activity was evaluated by using a glucose oxidase method (Glucose Assay Kit, Sigma). This lactase assay is based on the measurement of the amount of glucose produced following the action of lactase by incubating samples with a lactose buffer solution (0.056 mol/l lactose in a 0.1 mol/l Na-maleate buffer). For Caco-2 cells, lactase activity was determined directly from the cell monolayer. After extensive washing, the cell monolayer was incubated with lactose buffer for one hour at 37° C. The supernatant was recovered, 50 μl were diluted with 100 μl of glucose oxidase reagent and incubated at 37° C. for 1 hour. The reaction was stopped with 100 μl of H2SO4 and read by spectrophotometry at 450 nm. When lactase activity was determined from intestinal sample, tissue samples were first dounce-homogenized in 0.9% NaCl on crushed ice. These homogenates were then diluted in 0.9% NaCl ( 1/500) and 50 μl of dilution were incubated with lactose buffer and used to determine lactase activity. For each experiment, the background attributed to the remaining glucose in the samples was measured by incubating cells or cell extracts in lactose-free buffer.
# [4] = tested on: Caco-2 cells; experiment: Glucose uptake assay (2-DG6P) in Caco-2 cells; type: cell-based, human; settings: 1 μM, 24 h
# Protocol: Glucose uptake was evaluated by using the glucose uptake colorimetric assay kit (Sigma-Aldrich) according to the manufacturer's instructions. Briefly, Caco-2 cells were seeded into a 96-well plate at a density of 30,000 cells per well. Cells were serum deprived for 16 hours prior to stimulation in order to synchronize the cells. Cells were treated with GED (1 mM) or pioglitazone (1 μM) for 24 h. Cells were then washed 3 times with PBS and were glucose-starved by incubating with 100 μl of KRPH buffer (Krebs-Ringer-Phosphate-HEPES (KRPH) Buffer—20 mM HEPES, 5 mM KH2PO4, 1 mM MgSO4, 1 mM CaCl2, 136 mM NaCl, and 4.7 mM KCl, pH 7.4) containing 2% BSA for 40 minutes. 10 μl of 2-deoxyglucose (2-DG; 10 mM) was then added and incubation was continued for 20 minutes. 2-DG is taken up by the cells and phosphorylated by hexokinase to 2-DG6P, which cannot be further metabolized and accumulates in cells. Following incubation, cells were washed 3 times with PBS and lysed with 80 μl of the extraction buffer provided. The amount of 2-DG6P (which is directly proportional to glucose uptake by the cells) was determined by a colorimetric detection assay according to the manufacturer's protocol.
# [5] = tested on: LCT in PPARγ knock-down Caco-2 cells; experiment: LCT expression and activity in PPARγ knock-down Caco-2 cells (ShPPAR); type: cell-based, human; settings: ShPPAR vs ShLuc Caco-2 cells, 250-1000 μM
# Protocol: as §4
# Lactase activity was evaluated by using a glucose oxidase method (Glucose Assay Kit, Sigma). […] For Caco-2 cells, lactase activity was determined directly from the cell monolayer. […] The reaction was stopped with 100 μl of H2SO4 and read by spectrophotometry at 450 nm. When lactase activity was determined from intestinal sample, tissue samples were first dounce-homogenized in 0.9% NaCl on crushed ice. […] For each experiment, the background attributed to the remaining glucose in the samples was measured by incubating cells or cell extracts in lactose-free buffer. […]
# [6] = tested on: LCT; experiment: LCT mRNA and LCT activity in duodenum and jejunum of rats after 5 days oral gavage; type: in vivo, Sprague Dawley rats; settings: oral gavage 5 days, GED 30 mg/kg/day, CLA 200 mg/kg/day
# Protocol: as §4, §5
# (§6) To determine whether CLA induces LCT expression and activity in vivo, Sprague Dawley rats were fed a control diet and administered either carboxymethyl cellulose (CMC; 0.5%), CLA, or GED for 5 days, after which levels of PPARγ mRNA, LCT mRNA, and LCT activity were measured. CLA was administered at 200 mg/kg/day by oral gavage, and GED was administered at 30 mg/kg/day by oral gavage (FIG. 21A).
# [7] = tested on: PPARγ mRNA; experiment: PPARγ mRNA in duodenum and jejunum of rats after 5 days oral gavage; type: in vivo, Sprague Dawley rats; settings: 200 mg/kg/day oral gavage 5 days
# Protocol: as §4, §6
compound,measurement,setting,value
"Nc1ccc(O)c(C(=O)O)c1 [5ASA, 5-aminosalicylic acid]",Fold Lactase RNA,[1]; 30 mM,8.7 fold
same,LCT mRNA expression relative to control (qPCR),[2]; 30 mM,Significant increases; also recorded: induction
same,LCT activity relative to control cells,"[3]; Caco-2 cells, 30 mM",not
"CCc1ccc(CCOc2ccc(CC3SC(=O)NC3=O)cc2)nc1 (stereo not drawn) [Pioglitazone, pioglitazone]",Fold Lactase RNA,[1]; 1 μM,17.9 fold
same,Fold Lactase RNA,"[1]; 1 μM, listed as Pio",17.93 fold
same,LCT activity compared to untreated cells,"[3]; Caco-2 cells, 1 μM, vs DMSO",> 2 fold
same,glucose uptake of Caco-2 cells,[4],did not significantly alter
"CCCCC/C=C\C=C\CCCCCCCCC(=O)O [CLA, trans-10, cis-12 conjugated linoleic acid (CLA) isomer]",LCT mRNA expression relative to control (qPCR),[2]; 1 mM,as efficiently as 1 mM GED
same,"increase in LCT activity over control levels, compared to 1 mM GED","[3]; Caco-2 cells, 1 mM",2 fold
same,LCT activity in Caco-2 cells,[3]; concentrations of 100 mM or more,significantly increased
same,CLA-dependent induction of LCT activity in PPARγ knock-down cells,[5],strongly compromised
same,CLA-dependent induction of LCT expression in PPARγ knock-down cells,[5],strongly compromised
same,LCT activity in duodenal tissue compared to CMC control,[6],significant increase
same,LCT mRNA expression in duodenal tissue relative to CMC control,[6],significant increase
same,LCT mRNA expression in jejunal tissue relative to CMC control,[6],not
same,PPARγ mRNA expression levels in duodenum relative to CMC control,[7],significant increase
same,PPARγ mRNA expression levels in jejunum relative to CMC control,[7],significant increase
O=C(Nc1ccccc1)c1cc([N+](=O)[O-])ccc1Cl [GW9662],ability of GED to induce increased LCT mRNA expression in the presence of the antagonist,[2]; GED plus GW9662,markedly reduced
